Reference: the kinase profiling compilation of Christmann-Franck et al. (2016)

What was measured:
Assay in all cases: KINOMEscan competition binding
Conditions in all cases: compound 0.5 µM
FLT3 (human) = FLT3 (human) (UniProt P36888)
MAST1 (human) = MAST1 (human) (UniProt Q9Y2H9)
GSK3A (human) = GSK3A (human) (UniProt P49840)
PIK3CA (human) = PIK3CA (human) (UniProt P42336)
ANKK1 (human) = ANKK1 (human) (UniProt Q8NFD2)
FES (human) = FES (human) (UniProt P07332)
PHKG2 (human) = PHKG2 (human) (UniProt P15735)
MAPK13 (human) = MAPK13 (human) (UniProt O15264)
PRKACB (human) = PRKACB (human) (UniProt P22694)
RIPK1 (human) = RIPK1 (human) (UniProt Q13546)
[1] = system: PIK3CA (human), P42336 [Q546K]
BRSK2 (human) = BRSK2 (human) (UniProt Q8IWQ3)
CAMK4 (human) = CAMK4 (human) (UniProt Q16566)
PRKD2 (human) = PRKD2 (human) (UniProt Q9BZL6)
MAP3K15 (human) = MAP3K15 (human) (UniProt Q6ZN16)
DMPK (human) = DMPK (human) (UniProt Q09013)
CDK13 (human) = CDK13 (human) (UniProt Q14004)
BMP2K (human) = BMP2K (human) (UniProt Q9NSY1)
Chain of BMP2K (human) (Q9NSY1 whole entry, looked up): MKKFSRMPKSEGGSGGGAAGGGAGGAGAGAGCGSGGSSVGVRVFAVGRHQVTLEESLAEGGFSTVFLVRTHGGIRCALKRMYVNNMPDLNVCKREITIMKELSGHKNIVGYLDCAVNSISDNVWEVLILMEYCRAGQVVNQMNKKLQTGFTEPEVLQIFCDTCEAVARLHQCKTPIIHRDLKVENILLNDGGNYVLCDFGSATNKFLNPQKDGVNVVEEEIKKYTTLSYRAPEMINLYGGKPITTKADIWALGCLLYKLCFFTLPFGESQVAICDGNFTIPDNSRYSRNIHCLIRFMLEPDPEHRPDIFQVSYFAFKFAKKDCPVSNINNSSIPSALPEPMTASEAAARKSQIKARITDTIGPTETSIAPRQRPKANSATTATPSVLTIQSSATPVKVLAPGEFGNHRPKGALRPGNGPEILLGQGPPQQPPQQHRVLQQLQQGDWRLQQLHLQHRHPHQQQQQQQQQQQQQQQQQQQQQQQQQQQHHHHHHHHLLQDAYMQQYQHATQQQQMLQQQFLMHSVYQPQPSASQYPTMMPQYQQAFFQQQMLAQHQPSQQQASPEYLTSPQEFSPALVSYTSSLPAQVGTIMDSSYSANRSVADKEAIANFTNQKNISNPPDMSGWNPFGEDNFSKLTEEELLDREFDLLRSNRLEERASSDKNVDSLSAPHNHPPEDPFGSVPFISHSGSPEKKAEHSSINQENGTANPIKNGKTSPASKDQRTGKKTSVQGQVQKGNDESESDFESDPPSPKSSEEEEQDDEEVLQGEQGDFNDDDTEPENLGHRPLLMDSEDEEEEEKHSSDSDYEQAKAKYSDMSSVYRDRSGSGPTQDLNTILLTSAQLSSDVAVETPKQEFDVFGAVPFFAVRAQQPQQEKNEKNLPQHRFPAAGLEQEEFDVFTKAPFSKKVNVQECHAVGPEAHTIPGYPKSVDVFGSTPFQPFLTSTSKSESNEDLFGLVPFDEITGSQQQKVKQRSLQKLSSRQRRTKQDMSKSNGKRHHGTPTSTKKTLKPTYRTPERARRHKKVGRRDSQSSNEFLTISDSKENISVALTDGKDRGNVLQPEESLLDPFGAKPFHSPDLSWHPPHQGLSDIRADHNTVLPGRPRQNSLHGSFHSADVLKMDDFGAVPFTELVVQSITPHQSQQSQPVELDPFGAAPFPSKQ

PRKAA1 (human) = PRKAA1 (human) (UniProt Q13131)
TESK1 (human) = TESK1 (human) (UniProt Q15569)
CDKL2 (human) = CDKL2 (human) (UniProt Q92772)
AURKA (human) = AURKA (human) (UniProt O14965)
Chain of AURKA (human) (O14965 whole entry, looked up): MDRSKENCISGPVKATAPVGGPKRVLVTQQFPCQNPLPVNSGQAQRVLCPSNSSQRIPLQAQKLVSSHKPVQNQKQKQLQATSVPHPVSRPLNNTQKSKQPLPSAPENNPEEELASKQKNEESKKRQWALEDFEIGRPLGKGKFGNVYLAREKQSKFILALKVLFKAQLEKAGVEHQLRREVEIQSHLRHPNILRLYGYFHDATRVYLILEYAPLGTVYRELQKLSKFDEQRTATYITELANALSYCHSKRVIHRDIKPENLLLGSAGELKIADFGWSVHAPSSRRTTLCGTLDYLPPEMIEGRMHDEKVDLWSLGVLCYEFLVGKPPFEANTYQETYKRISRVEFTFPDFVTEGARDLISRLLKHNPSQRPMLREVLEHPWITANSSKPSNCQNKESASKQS

SLK (human) = SLK (human) (UniProt Q9H2G2)
TNK1 (human) = TNK1 (human) (UniProt Q13470)
[2] = system: FLT3 (human), P36888 [R834Q]
MAPK11 (human) = MAPK11 (human) (UniProt Q15759)
Chain of MAPK11 (human) (Q15759 whole entry, looked up): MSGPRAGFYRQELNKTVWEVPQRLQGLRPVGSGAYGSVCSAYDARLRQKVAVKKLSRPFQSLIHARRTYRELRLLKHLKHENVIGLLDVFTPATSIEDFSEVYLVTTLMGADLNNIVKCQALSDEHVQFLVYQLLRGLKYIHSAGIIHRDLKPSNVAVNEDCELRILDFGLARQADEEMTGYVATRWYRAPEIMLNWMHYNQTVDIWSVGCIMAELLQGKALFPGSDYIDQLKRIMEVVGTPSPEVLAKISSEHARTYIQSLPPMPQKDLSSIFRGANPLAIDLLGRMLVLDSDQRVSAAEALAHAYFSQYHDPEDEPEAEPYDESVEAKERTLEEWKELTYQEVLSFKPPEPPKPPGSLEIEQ

[3] = system: FLT3 (human), P36888 [K663Q]
NEK5 (human) = NEK5 (human) (UniProt Q6P3R8)
PAK4 (human) = PAK4 (human) (UniProt O96013)
EPHA2 (human) = EPHA2 (human) (UniProt P29317)
CHEK2 (human) = CHEK2 (human) (UniProt O96017)
CLK2 (human) = CLK2 (human) (UniProt P49760)
PRKCQ (human) = PRKCQ (human) (UniProt Q04759)
Chain of PRKCQ (human) (Q04759 whole entry, looked up): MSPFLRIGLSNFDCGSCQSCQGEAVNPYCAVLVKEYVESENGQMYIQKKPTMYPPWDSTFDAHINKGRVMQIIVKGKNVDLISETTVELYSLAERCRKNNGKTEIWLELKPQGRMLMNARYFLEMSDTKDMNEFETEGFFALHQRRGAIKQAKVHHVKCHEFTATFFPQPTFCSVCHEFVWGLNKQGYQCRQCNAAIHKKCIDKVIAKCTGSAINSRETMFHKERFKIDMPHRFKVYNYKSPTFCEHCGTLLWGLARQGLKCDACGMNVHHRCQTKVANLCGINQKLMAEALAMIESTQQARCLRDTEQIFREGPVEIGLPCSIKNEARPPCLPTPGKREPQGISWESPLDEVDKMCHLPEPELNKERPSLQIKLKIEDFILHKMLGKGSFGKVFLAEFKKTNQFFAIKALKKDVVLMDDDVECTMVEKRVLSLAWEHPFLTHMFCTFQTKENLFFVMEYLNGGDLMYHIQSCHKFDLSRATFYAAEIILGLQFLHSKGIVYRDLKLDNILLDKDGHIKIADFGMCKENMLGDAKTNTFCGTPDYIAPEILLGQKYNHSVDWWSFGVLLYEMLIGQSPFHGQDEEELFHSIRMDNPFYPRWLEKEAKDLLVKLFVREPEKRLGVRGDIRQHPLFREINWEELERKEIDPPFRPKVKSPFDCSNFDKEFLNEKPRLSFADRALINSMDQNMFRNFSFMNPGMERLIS

TAOK1 (human) = TAOK1 (human) (UniProt Q7L7X3)
PIP5K1A (human) = PIP5K1A (human) (UniProt Q99755)
NEK9 (human) = NEK9 (human) (UniProt Q8TD19)
PDGFRA (human) = PDGFRA (human) (UniProt P16234)
MARK2 (human) = MARK2 (human) (UniProt Q7KZI7)
CDK17 (human) = CDK17 (human) (UniProt Q00537)
FYN (human) = FYN (human) (UniProt P06241)
HUNK (human) = HUNK (human) (UniProt P57058)
RIPK2 (human) = RIPK2 (human) (UniProt O43353)
Chain of RIPK2 (human) (O43353 whole entry, looked up): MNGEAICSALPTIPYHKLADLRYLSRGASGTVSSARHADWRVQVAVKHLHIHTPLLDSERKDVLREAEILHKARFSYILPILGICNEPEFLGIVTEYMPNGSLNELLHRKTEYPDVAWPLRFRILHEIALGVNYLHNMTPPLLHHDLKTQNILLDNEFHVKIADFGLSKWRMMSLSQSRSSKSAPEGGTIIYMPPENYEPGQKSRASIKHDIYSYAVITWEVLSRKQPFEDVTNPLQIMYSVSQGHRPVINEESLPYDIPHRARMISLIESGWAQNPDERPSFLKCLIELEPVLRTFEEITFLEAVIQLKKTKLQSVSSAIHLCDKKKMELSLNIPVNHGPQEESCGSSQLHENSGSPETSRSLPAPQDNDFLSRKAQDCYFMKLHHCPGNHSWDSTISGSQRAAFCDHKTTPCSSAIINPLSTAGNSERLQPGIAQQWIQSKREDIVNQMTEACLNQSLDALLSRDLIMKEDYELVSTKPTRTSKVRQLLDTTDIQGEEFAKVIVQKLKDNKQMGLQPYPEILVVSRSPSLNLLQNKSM

Chain of PIK3CA (human) (P42336 whole entry, looked up): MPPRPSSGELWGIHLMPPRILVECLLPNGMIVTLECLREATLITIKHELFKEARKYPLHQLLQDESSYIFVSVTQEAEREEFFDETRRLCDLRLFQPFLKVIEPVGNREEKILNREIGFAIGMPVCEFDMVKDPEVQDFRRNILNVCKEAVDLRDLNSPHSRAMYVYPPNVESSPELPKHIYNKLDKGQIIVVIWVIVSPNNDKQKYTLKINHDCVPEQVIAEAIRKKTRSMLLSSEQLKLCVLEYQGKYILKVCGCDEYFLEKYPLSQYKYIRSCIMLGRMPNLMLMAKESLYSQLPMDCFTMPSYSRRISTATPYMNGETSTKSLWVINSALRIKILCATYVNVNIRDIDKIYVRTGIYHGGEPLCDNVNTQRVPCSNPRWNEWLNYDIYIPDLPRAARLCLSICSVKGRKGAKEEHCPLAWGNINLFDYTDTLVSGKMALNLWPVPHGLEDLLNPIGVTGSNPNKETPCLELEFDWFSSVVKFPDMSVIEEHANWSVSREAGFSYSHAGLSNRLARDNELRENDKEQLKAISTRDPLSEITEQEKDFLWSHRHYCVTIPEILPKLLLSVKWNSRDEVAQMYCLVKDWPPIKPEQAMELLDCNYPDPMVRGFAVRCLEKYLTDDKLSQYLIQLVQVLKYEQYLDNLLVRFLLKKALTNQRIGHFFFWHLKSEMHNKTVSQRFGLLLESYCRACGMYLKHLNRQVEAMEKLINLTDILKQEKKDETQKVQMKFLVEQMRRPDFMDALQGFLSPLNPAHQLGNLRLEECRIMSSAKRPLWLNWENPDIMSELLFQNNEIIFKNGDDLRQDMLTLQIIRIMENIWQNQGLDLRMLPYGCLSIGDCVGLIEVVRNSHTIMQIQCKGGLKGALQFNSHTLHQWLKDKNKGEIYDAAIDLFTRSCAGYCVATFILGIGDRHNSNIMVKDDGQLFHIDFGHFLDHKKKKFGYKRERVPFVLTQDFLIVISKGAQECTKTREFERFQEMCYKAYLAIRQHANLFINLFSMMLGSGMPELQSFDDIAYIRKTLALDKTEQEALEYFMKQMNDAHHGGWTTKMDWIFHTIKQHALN
Chain of FES (human) (P07332 whole entry, looked up): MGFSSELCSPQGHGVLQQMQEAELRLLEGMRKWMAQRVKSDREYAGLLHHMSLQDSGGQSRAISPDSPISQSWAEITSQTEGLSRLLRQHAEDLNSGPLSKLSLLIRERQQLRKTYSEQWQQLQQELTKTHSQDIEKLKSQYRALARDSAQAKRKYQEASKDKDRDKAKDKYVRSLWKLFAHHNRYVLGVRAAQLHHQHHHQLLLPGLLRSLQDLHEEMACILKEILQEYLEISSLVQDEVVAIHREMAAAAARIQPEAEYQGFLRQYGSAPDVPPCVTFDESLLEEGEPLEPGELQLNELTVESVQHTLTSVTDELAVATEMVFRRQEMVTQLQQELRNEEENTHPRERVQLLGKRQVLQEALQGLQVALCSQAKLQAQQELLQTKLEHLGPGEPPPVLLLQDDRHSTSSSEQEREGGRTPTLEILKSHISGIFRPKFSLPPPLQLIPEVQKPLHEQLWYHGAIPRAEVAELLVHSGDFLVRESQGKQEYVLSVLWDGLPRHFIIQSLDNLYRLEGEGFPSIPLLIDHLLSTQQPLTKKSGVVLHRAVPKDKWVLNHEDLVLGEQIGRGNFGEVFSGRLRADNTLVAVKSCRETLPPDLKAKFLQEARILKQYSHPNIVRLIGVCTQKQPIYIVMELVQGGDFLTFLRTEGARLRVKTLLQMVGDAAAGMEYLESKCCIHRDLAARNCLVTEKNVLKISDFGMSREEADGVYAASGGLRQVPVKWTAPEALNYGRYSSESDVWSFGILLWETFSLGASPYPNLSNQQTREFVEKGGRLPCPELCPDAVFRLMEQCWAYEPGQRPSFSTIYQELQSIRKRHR

Cn1c2ccccc2c2c3c(c4c5ccccc5n(CCC#N)c4c21)CNC3=O
kinase still bound, per cent of control (FLT3 (human)): 1.4% | kinase still bound, per cent of control (MAST1 (human)): 100% | kinase still bound, per cent of control (GSK3A (human)): 100% | kinase still bound, per cent of control (PIK3CA (human)): 100% | kinase still bound, per cent of control (ANKK1 (human)): 70% | kinase still bound, per cent of control (FES (human)): 85% | kinase still bound, per cent of control (PHKG2 (human)): 4.4% | kinase still bound, per cent of control (MAPK13 (human)): 100% | kinase still bound, per cent of control (PRKACB (human)): 67% | kinase still bound, per cent of control (RIPK1 (human)): 100% | kinase still bound, per cent of control [1]: 100% | kinase still bound, per cent of control (BRSK2 (human)): 49% | kinase still bound, per cent of control (CAMK4 (human)): 100% | kinase still bound, per cent of control (PRKD2 (human)): 4.8% | kinase still bound, per cent of control (MAP3K15 (human)): 97% | kinase still bound, per cent of control (DMPK (human)): 100% | kinase still bound, per cent of control (CDK13 (human)): 100% | kinase still bound, per cent of control (BMP2K (human)): 3.4% | kinase still bound, per cent of control (PRKAA1 (human)): 59% | kinase still bound, per cent of control (TESK1 (human)): 43% | kinase still bound, per cent of control (CDKL2 (human)): 26% | kinase still bound, per cent of control (AURKA (human)): 74% | kinase still bound, per cent of control (SLK (human)): 69% | kinase still bound, per cent of control (TNK1 (human)): 2% | kinase still bound, per cent of control [2]: 12% | kinase still bound, per cent of control (MAPK11 (human)): 97% | kinase still bound, per cent of control [3]: 0.95% | kinase still bound, per cent of control (NEK5 (human)): 100% | kinase still bound, per cent of control (PAK4 (human)): 4% | kinase still bound, per cent of control (EPHA2 (human)): 87% | kinase still bound, per cent of control (CHEK2 (human)): 31% | kinase still bound, per cent of control (CLK2 (human)): 38% | kinase still bound, per cent of control (PRKCQ (human)): 59% | kinase still bound, per cent of control (TAOK1 (human)): 8% | kinase still bound, per cent of control (PIP5K1A (human)): 1.6% | kinase still bound, per cent of control (NEK9 (human)): 100% | kinase still bound, per cent of control (PDGFRA (human)): 100% | kinase still bound, per cent of control (MARK2 (human)): 9.8% | kinase still bound, per cent of control (CDK17 (human)): 100% | kinase still bound, per cent of control (FYN (human)): 92% | kinase still bound, per cent of control (HUNK (human)): 87% | kinase still bound, per cent of control (RIPK2 (human)): 100%
